Assay results reported in US20240197661A1, “ORAL DOSAGE FORMS OF METHYL HYDROGEN FUMARATE AND PRODRUGS THEREOF” (Arbor Pharmaceuticals, LLC, priority 2012, published 2024).

Experiments:
[1] = test system: subjects with moderate-to-severe plaque psoriasis; assay: safety (adverse events) in 24-week plaque psoriasis study; assay type: in vivo, human
Procedure: (§1) Study subjects were enrolled at 76 US sites. Patients had chronic plaque psoriasis for more than 6 months, PASI (Psoriasis Area and Severity Index) scores ≥12, IGA (Investigator's Global Assessment) Scores ≥3, and psoriasis BSA (Body Surface Area) ≥10%. Altogether 426 subjects were randomized in a 1:1:1:1 ratio into 4 dose arms: 400 mg QD, 400 mg BID, 600 mg BID, and placebo. A 5-week titration phase was followed by 19 weeks of treatment. The co-primary end points at week 24 were the percentages of patients achieving an at least 75% reduction of their baseline PASI (“PASI-75”) and an IGA score of ‘clear’ or ‘almost clear’ (i.e., 0 or 1).

[2] = degradation of MHF prodrugs in pH 6.0 phosphate buffer with sodium acetate
Procedure: Each prodrug was placed in a pH 6.0 phosphate buffer with multiple concentrations of sodium acetate (0.0 M, 0.1 M, 0.5 M, 2.0 M, 3.0 M, and 4.0 M) at 40° C. The presence of prodrug was measured over time up to 42 hours. The rate of prodrug degradation can be expressed according to the following formula: In (A)=In (A0)−Kobs●t, wherein A is the prodrug concentration, A0 is the prodrug concentration at time zero and Kobs is the observed slope of the curve plotting In (A) versus time (t). Thus, the higher the Kobs, the more quickly the prodrug is degrading.

[3] = test system: healthy adult subjects; assay: safety and tolerability in single-dose food effect study; assay type: in vivo, human; conditions: single 100 mg dose, fed and fasted
Excerpt: Twelve healthy adult volunteers (males and females) participated in the study. All twelve subjects received […] a dosage form of Example 3, once in a fed condition and once in a fasted condition, with a two-week washout between treatments. The fasted dosing was achieved by dosing the subject following an overnight fast while the fed dosing was achieved by dosing the subject after consuming a high fat-content breakfast.
All 12 subjects completed the dosing period. All adverse events were mild.

[4] = test system: subjects with moderate-to-severe plaque psoriasis; assay: 24-week placebo-controlled efficacy study in plaque psoriasis; assay type: in vivo, human; conditions: for patients achieving PASI-75 / patients achieving an IGA score of 0 or 1: week 24
Procedure: as §1

CCN(CC)C(=O)COC(=O)/C=C/C(=O)OC [PPC-06, (N,N-Diethylcarbamoyl)methyl methyl (2E)but-2-ene-1,4-dioate]
patients reporting diarrhea (TEAE) ([1]; 400 mg BID): 18% | patients reporting diarrhea (TEAE) ([1]; 400 mg QD): 7% | patients reporting diarrhea (TEAE) ([1]; 600 mg BID): 23% | flushing reported ([1]; PPC-06 treatment arms): 1-2% | subjects developing CTCAE grade 3 lymphopenia ([1]; during treatment, recovered on discontinuation): Two | new or unexpected adverse events compared to DMF drugs ([1]; in vivo): No new or unexpected adverse events | severity of most cases of diarrhea ([1]; in vivo): mild to moderate | nausea and abdominal pain reported ([1]; overall PPC-06 population): less than 10% | formation rates of both primary degradation products ([2]; 14.6 hour exposure, pH 6.0, 40° C., varying acetate concentration): increased with increasing acetate concentration | effect of acetate on degradation rate compared to DMF ([2]; pH 6.0, 40° C.): more pronounced | degradation rate (Kobs) as a function of acetate concentration ([2]; pH 6.0 phosphate buffer, sodium acetate 0.0-4.0 M, 40° C., up to 42 hours): increased with increasing concentrations of acetate | severity of adverse events [3]: mild | tolerability during the trial [3]: well tolerated | patients achieving PASI-75 ([4]; 400 mg BID, p=0.002 vs placebo): 47.2% | patients achieving an IGA score of 0 or 1 ([4]; 400 mg BID, p=0.021 vs placebo): 41.4% | patients achieving PASI-75 ([4]; 400 mg QD, p=0.004 vs placebo): 39.7% | patients achieving an IGA score of 0 or 1 ([4]; 400 mg QD, p=0.044 vs placebo): 35.7% | patients achieving PASI-75 ([4]; 600 mg BID, p=0.004 vs placebo): 44.3% | patients achieving an IGA score of 0 or 1 ([4]; 600 mg BID, p=0.010 vs placebo): 44.4% | efficacy compared to placebo ([4]; 24 weeks of treatment, three dose strengths): significant efficacy compared to placebo
